Where a name gives a salt, the structure may show the parent alone. Read-outs that look alike come from different tables or passages of the source. Starred links: 1 amine or outer side, 2 acyl side, 3 side chain; linkers in the order of their positions; H or OH if unused. Positions of bridges follow the written chain, without caps; N, C: chain ends. Non-standard residues stand in square brackets, D forms with d. Residues, ends and D or L forms follow the SMILES beside them. Chains are numbered I, II in the order given. Actinocin(9to1) = Cc1c2oc3c(C)ccc(C(=O)[*:1])c3nc-2c(C(=O)[*:2])c(N)c1=O; NMeV = CN[C@H](C(=O)O)C(C)C; Sar = CNCC(=O)O
Tests used:
Format in all cases: cell-based, human
[1] = system: PBMCs from ALL patients; test: Primary screening of FDA approved drug library, TitreGlo/CellTiter-Glo cell viability, PBMCs from ALL patients; conditions: for inhibition at 10 µM: Homo sapiens, PBMC, read-out: % Inhibition, ALL Average
Description: (§1) Whole blood was taken from experimental group patients and control group patients. The collected blood was transferred to EDTA tubes with a 5 mL pipette and a pipette aid and then to each EDTA tubes corresponding 50 ml centrifuge tubes. All the blood from one patient was placed into 1 tube (50 mL) and an equal volume of PBS was added to the 50 mL centrifuge tube. The sample was then mixed by either inverting the tube or pipetting up & down. The blood was transferred into tow 50 mL leucosep tube and centrifuged at room temperature (18-20° C.) for 15 minutes at 800×g with the brake turned off and acceleration at 2/deceleration at zero. After centrifugation, the white cell interface (buffy coat) was removed by pasture pipette and transferred to the new appropriately labelled 50 ml centrifuge tube. 25 mL PBS was added to the white cell interface (buffy coat) and the mix was centrifuged for 10 minutes at room temperature at 400×g with the brake off and acceleration at 4 & deceleration at 2. The supernatant was discarded from the pellet carefully in an appropriate manner. The pellet was washed another time with 20 mL by centrifugation for 5 minutes as above. The pellet was re-suspended in 5 mL and cells were counted using V-Cell. The cells were then either used directly as fresh for screening or frozen in liquid nitrogen in 10% DMSO/RPMPI media until use.
(§2) The assay used for TitreGlo (Promega) to measure cell viability based on the ATP production. […] The assay was developed in a 384-well plate with 2500 cell/well in 50 uL total volume. Alternatively, the assay could be developed in a 96-well plate with 10,000 cells/well. […] Z′ as a statistics factor was calculated as follows:
(§3) Each compound from the ENZO FDA SCREEN-WELL® FDA approved drug library V2 (0.10 μl in 100% DMSO) was transferred to white, 384-well, PS, Cellstar plates (Greiner Bio-One) using the Echo® Liquid Handler (Labcyte Inc.). Each plate contained one column for the High/Low Controls. The Low Control (1% DMSO v/v in column 23, no cells) and the High Control (final 1% DMSO v/v in column 24, with cells) were employed to calculate the Z′ for each assay plate. […] At 24 h post seeding, baseline growth was assessed using a control plate and CellTiter-Glo (CTG) reagent (Promega Corporation). Briefly, 20 μL/well of CTG detection mix was added and plates were read using an EnVision Multimode plate reader (PerkinElmer) after 10 min incubation in the dark. The raw luminescence signal was normalized in ActivityBase XE with outliers in control wells eliminated according to the 3-sigma method to yield percentage of cell viability by using the High Control (HC) containing cells in 1% DMSO v/v (Carl Roth) and the Low Control containing 1% DMSO v/v (Carl Roth). All Medium-Throughput Screening experiments were performed in duplicate for each patient. […] The raw luminescence signal was processed using Graph Pad Prism (Graph Pad Software Inc.) with outliers in control wells eliminated according to the 3-sigma method. The dose-response curves were analyzed using a 4 parameter sigmoidal fit to obtain plausible results in the case non-sigmoidal dose-response curves.
(§4) The Screen-Well FDA approved drug library was screened, which contains 780 approved drugs. […] The final DMSO concentration in the assay plate was 0.1% of total volume. […] The average of all four control samples was then calculated and used to determine the positive “hits” in patients' samples.
(§5) Each average patient samples were plotted against average of the control samples to identify the positive hits.

[2] = system: PBMCs from AML patients; test: Primary screening of FDA approved drug library, TitreGlo/CellTiter-Glo cell viability, PBMCs from AML patients; conditions: for inhibition at 10 µM: Homo sapiens, PBMC, read-out: % Inhibition, AML Average
Description: as §1, §2, §3, §4, §5

[3] = system: PBMCs from CLL patients; test: Primary screening of FDA approved drug library, TitreGlo/CellTiter-Glo cell viability, PBMCs from CLL patients; conditions: for inhibition at 10 µM: Homo sapiens, PBMC, read-out: % Inhibition, CLL Average
Description: as §1, §2, §3, §4, §5

[4] = system: PBMCs from CML patients; test: Primary screening of FDA approved drug library, TitreGlo/CellTiter-Glo cell viability, PBMCs from CML patients; conditions: for inhibition at 10 µM: Homo sapiens, PBMC, read-out: % Inhibition, CML Average
Description: as §1, §2, §3, §5
Samples from 4 patients were screened against the FDA approved drug library where the Negative Control (High control) contained cells treated with DMSO and the Positive Control (Low control) were based using no cells. The screening was carried out in 96 well plates. The raw luminescence counts were normalized and the % Inhibition was calculated relative to the high control (0% Inhibition) and the low control (100% Inhibition).

[5] = compound 10 uM, PBMCs from ALL patients, average over patients, relative to high control (0%) and no-cell low control (100%)
[6] = compound 10 uM, PBMCs from AML patients, average over patients, relative to high control (0%) and no-cell low control (100%)
[7] = compound 10 uM, PBMCs from CLL patients, average over patients, relative to high control (0%) and no-cell low control (100%)
[8] = compound 10 uM, PBMCs from CML patients, average over patients, relative to high control (0%) and no-cell low control (100%)

Row | Compound | inhibition at 10 µM [1, 5] | inhibition at 10 µM [2, 6] | inhibition at 10 µM [3, 7] | inhibition at 10 µM [4, 8] | other results
1 | N[C@@H](Cc1ccc(N(CCCl)CCCl)cc1)C(=O)O [Melphalan] | 92.9% | 42.1% | 69.6% | 32.5% | –
2 | CO[C@H]1/C=C/O[C@@]2(C)Oc3c(C)c(O)c4c(O)c(c(/C=N/N5CCN(C6CCCC6)CC5)c(O)c4c3C2=O)NC(=O)/C(C)=C\C=C\[C@H](C)[C@H](O)[C@@H](C)[C@@H](O)[C@@H](C)[C@H](OC(C)=O)[C@@H]1C [Rifapentine] | – | -3.2% | 12.3% | 76.5% | –
3 | C[C@H]1O[C@@H](O[C@H]2[C@@H](O)C[C@H](O[C@H]3[C@@H](O)C[C@H](O[C@H]4CC[C@@]5(C)[C@H](CC[C@@H]6[C@@H]5C[C@@H](O)[C@]5(C)[C@@H](C7=CC(=O)OC7)CC[C@]65O)C4)O[C@@H]3C)O[C@@H]2C)C[C@H](O)[C@@H]1O [Digoxin] | 32% | -33.2% | 30.1% | 76.8% | –
4 | CN1CCc2cccc3c2[C@H]1Cc1ccc(O)c(O)c1-3 [Apomorphine HCl Hemihydrate] | 37.3% | 39.5% | 27.9% | 89.4% | –
5 | CN(C)CCCN1c2ccccc2CCc2ccccc21 [Imipramine HCl] | -6% | 1.9% | – | 13.7% | –
6 | Oc1c(Cl)cc(Cl)c(Cl)c1Cc1c(O)c(Cl)cc(Cl)c1Cl [Hexachlorophene] | – | – | – | – | inhibition at 10 µM [1]: 23%; inhibition at 10 µM [2]: 35%; inhibition at 10 µM [3]: -13.5%; inhibition at 10 µM [4]: 26.3%
7 | COc1cccc2c1C(=O)c1c(O)c3c(c(O)c1C2=O)C[C@@](O)(C(=O)CO)C[C@@H]3O[C@H]1C[C@H](N)[C@H](O)[C@H](C)O1 [Doxorubicin HCl] | 72.6% | 73.6% | 67.2% | 36.7% | –
8 | CC(C)(C)C(=O)OCOP(=O)(COCCn1cnc2c(N)ncnc21)OCOC(=O)C(C)(C)C [Adcfovir Dipivoxil] | 96% | 72.8% | 43.9% | 63.7% | –
9 | C[C@@H](NCCCc1cccc(C(F)(F)F)c1)c1cccc2ccccc12 [Cinacalcet HCl] | 41.9% | 43.2% | 28.6% | 63.3% | –
10 | CNC[C@H](O)c1ccc(O)c(O)c1.O=C(O)C(O)C(O)C(=O)O [L-(−)-Epinephrine-(+)-Bitartrate] | – | – | – | – | % Inhibition, ALL Average [1, 5]: 80.5%; % Inhibition, AML Average [2, 6]: −2.8%; % Inhibition, CLL Average [3, 7]: 45.4%; % Inhibition, CML Average [4, 8]: 68.4%
11 | Nc1ccn([C@@H]2O[C@H](CO)[C@@H](O)[C@@H]2O)c(=O)n1 [Cytarabine] | 49.2% | 66.1% | 26.6% | 58.8% | –
12 | COC(=O)C1=C(C)NC(C)=C(C(=O)OC)C1c1ccccc1[N+](=O)[O-] [Nifedipine] | 74.3% | 7.9% | -10.8% | 4.2% | –
13 | COc1cc(NC(C)CCCN)c2ncccc2c1 (stereo not shown) [Primaquine Phosphate] | 54.9% | 19.8% | 16.9% | 40.9% | –
14 | Cc1c2oc3c(C)ccc(C(=O)N[C@@H]4C(=O)N[C@H](C(C)C)C(=O)N5CCC[C@H]5C(=O)N(C)CC(=O)N(C)[C@@H](C(C)C)C(=O)O[C@@H]4C)c3nc-2c(C(=O)N[C@@H]2C(=O)N[C@H](C(C)C)C(=O)N3CCC[C@H]3C(=O)N(C)CC(=O)N(C)[C@@H](C(C)C)C(=O)O[C@@H]2C)c(N)c1=O [Dactinomycin (=Actinomycin D), Dactinomycin] (I: T[dV]P[Sar][NMeV] / II: T[dV]P[Sar][NMeV]; ester I:1-I:C, II:1-II:C; linker I:N-II:N via Actinocin(9to1)) | 66.5% | 60.4% | 42.9% | 24.4% | –
15 | CCN(CC)C(=S)SSC(=S)N(CC)CC [Disulfiram] | 91.5% | 64% | -45.4% | 92.4% | –
16 | NS(=O)(=O)c1cc(C(=O)O)c(NCc2ccco2)cc1Cl [Furosemide] | -31.3% | -39% | 50.3% | -38.4% | –
17 | CC(CCc1ccc(O)cc1)NCCc1ccc(O)c(O)c1 (stereo not shown) [Dobutamine HCl] | 79.6% | -10.5% | -5% | 25.3% | –
18 | CCN(CC)CCNC(=O)c1c(C)[nH]c(/C=C2\C(=O)Nc3ccc(F)cc32)c1C [Sunitinib Malate] | 54.2% | 56.5% | 40.5% | 65.2% | –

From patent US10639382B2, “Method for treating leukemia” (National Guard Health Affairs, priority 2017, dated 2020)
